Measurements reported in patent US20100298141A1, “SUBSTITUTED PYRIDINE N-OXIDE HERBICIDES” (E. I. DU PONT DE NEMOURS AND COMPANY, priority 2007, published 2010).

Experiments:
[1] = system: eastern black nightshade; experiment: Test C pre-/postemergence test; assay type: in vivo, Solanum ptycanthum
Description: Seeds of plant species selected from blackgrass (Alopecurus myosuroides), downy brome (Bromus tectorum), green foxtail (Setaria viridis), Italian ryegrass (Lolium multiflorum), wheat (Triticum aestivum), wild oat (Avena fatua), catchweed bedstraw (Galium aparine), Russian thistle (Salsola kali), […] (Cynodon dactylon), Surinam grass (Brachiaria decumbens), cocklebur (Xanthium strumarium), corn (Zea mays), crabgrass (Digitaria sanguinalis), woolly cupgrass (Eriochloa villosa), giant foxtail (Setaria faberii), Goosegrass (Eleusin indica), johnsongrass (Sorghum halepense), kochia (Kochia scoparia), lambsquarters (Chenopodium album), morningglory (Ipomoea coccinea), eastern black nightshade (Solanum ptycanthum), yellow nutsedge (Cyperus esculentus), pigweed (Amaranthus retroflexus), common ragweed (Ambrosia elation), soybean (Glycine max), common (oilseed) sunflower (Helianthus annuus), and velvetleaf (Abutilon theophrasti) were planted and treated preemergence with test chemicals formulated in a non-phytotoxic solvent mixture which included a surfactant. At the same time, plants selected from these crop and weed species and also winter barley (Hordeum vulgare), canarygrass (Phalaris minor), and chickweed (Stellaria media) were treated with postemergence applications of some of the test chemicals formulated in the same manner. Plants ranged in height from 2 to 18 cm (1- to 4-leaf stage) for postemergence treatments. […] At time of treatment, test pots were flooded to 3 cm above the soil surface, treated by application of test compounds directly to the paddy water, and then maintained at that water depth for the duration of the test. […] A dash (-) response means no test result.

[2] = system: corn; experiment: Test A pre-/postemergence greenhouse test; assay type: in vivo, Zea mays; conditions: for Corn plant response rating: 0 to 100 scale
How it was run: (§1)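 Visual injury ratings against untreated controls, taken roughly ten days after treatment in greenhouse. Plants were sprayed postemergence at one- to two-leaf stage (2–10 cm tall); at the same time, seeded loam/sand soil received a directed preemergence spray. Formulation: non-phytotoxic solvent mixture with surfactant.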

[3] = system: kochia; experiment: Test C pre-/postemergence test; assay type: in vivo, Kochia scoparia
How it was run: (§2)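 Test chemicals were formulated with surfactant in a non-phytotoxic solvent and sprayed both on freshly planted seeds (preemergence) and on 1- to 4-leaf plants of 2–18 cm (postemergence). Flooded-paddy pots received compound directly into 3 cm of standing water, maintained for the test.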

[4] = system: bermudagrass; experiment: Test C pre-/postemergence test; assay type: in vivo, Cynodon dactylon
How it was run: as §2

[5] = system: common (oilseed) sunflower; experiment: Test C pre-/postemergence test; assay type: in vivo, Helianthus annuus
How it was run: as §2

[6] = system: morningglory; experiment: Test C pre-/postemergence test; assay type: in vivo, Ipomoea coccinea
How it was run: as §2

[7] = system: redroot pigweed; experiment: Test A pre-/postemergence greenhouse test; assay type: in vivo, Amaranthus retroflexus; conditions: for Pigweed plant response rating: 0 to 100 scale
How it was run: as §1

[8] = system: morningglory; experiment: Test A pre-/postemergence greenhouse test; assay type: in vivo, Ipomoea spp.; conditions: for Morningglory plant response rating: 0 to 100 scale
How it was run: as §1

[9] = system: cocklebur; experiment: Test C pre-/postemergence test; assay type: in vivo, Xanthium strumarium
How it was run: as §2

[10] = system: corn; experiment: Test C pre-/postemergence test; assay type: in vivo, Zea mays
How it was run: as §2

[11] = system: giant foxtail; experiment: Test C pre-/postemergence test; assay type: in vivo, Setaria faberii
How it was run: as §2

[12] = system: johnsongrass; experiment: Test C pre-/postemergence test; assay type: in vivo, Sorghum halepense
How it was run: as §2

[13] = system: yellow nutsedge; experiment: Test C pre-/postemergence test; assay type: in vivo, Cyperus esculentus
How it was run: as §2

[14] = system: rice; experiment: Test C flooded paddy test; assay type: in vivo, Oryza sativa; conditions: Flood
How it was run: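 Flooded 3 cm over soil; compound into paddy water; depth kept constant. Greenhouse 13–15 d.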

[15] = 62 g ai/ha, Preemergence, scale 0 to 100
[16] = 125 g ai/ha, preemergence, scale 0 (no effect) to 100 (complete control)
[17] = Preemergence, 31 g ai/ha, scale 0 to 100 (0 no effect, 100 complete control)
[18] = preemergence, 250 g ai/ha, scale 0 (no effect) to 100 (complete control)
[19] = Postemergence, 125 g ai/ha, 0 is no effect, 100 is complete control
[20] = Postemergence, 500 g ai/ha, 0 is no effect, 100 is complete control
[21] = Preemergence, 125 g ai/ha, 0 no effect, 100 complete control
[22] = Preemergence, 500 g ai/ha, 0 to 100 scale where 0 is no effect and 100 is complete control

Cn1nc(C(F)(F)F)c(C[S+]([O-])c2cc(Cl)cc[n+]2[O-])c1Cl (racemic) [Compound 39]
20: Plant response rating, Foxtail, Giant [11, 17]
5: Corn plant response rating [10, 15]
0: Kochia plant response rating [3, 15] | Plant response rating, Kochia [3, 17] | Sunflower plant response rating [5, 15] | Sunflower plant response rating [5, 16] | Plant response rating, Sunflower [5, 17] | Cocklebur plant response rating [9, 15] | Cocklebur plant response rating [9, 16] | Plant response rating, Cocklebur [9, 17] | Cocklebur plant response rating [9, 18] | Plant response rating, Corn [10, 17] | Plant response rating, Rice ([14]; 31 g ai/ha, scale 0 to 100 (0 no effect, 100 complete control))
85: Plant response rating, Bermudagrass [4, 17] | Johnsongrass plant response rating [12, 16] | Johnsongrass plant response rating [12, 18] | Nutsedge, Yellow plant response rating [13, 16] | Nutsedge, Yellow plant response rating [13, 18]
30: Corn plant response rating [2, 19] | Corn plant response rating [2, 21] | Plant response rating, Morningglory [6, 17] | Plant response rating, Johnsongrass [12, 17]
98: Nightshade plant response rating [1, 18]
75: Plant response rating, Nightshade [1, 17] | Sunflower plant response rating [5, 18]
80: Morningglory plant response rating [6, 15] | Morningglory plant response rating [8, 21] | Corn plant response rating [10, 18] | Johnsongrass plant response rating [12, 15]
95: Nightshade plant response rating [1, 16]
70: Corn plant response rating [10, 16]
50: Corn plant response rating [2, 20] | Plant response rating, Corn [2, 22] | Nutsedge, Yellow plant response rating [13, 15] | Plant response rating, Nutsedge, Yellow [13, 17]
40: Plant response rating, Rice ([14]; 125 g ai/ha, scale 0 to 100, 0 no effect, 100 complete control, 13 to 15 days)
90: Nightshade plant response rating [1, 15] | Foxtail, Giant plant response rating [11, 15] | Foxtail, Giant plant response rating [11, 18]
100: Kochia plant response rating [3, 18] | Bermudagrass plant response rating ([4]; 62 g ai/ha, Preemergence, scale 0 to 100 (0 no effect, 100 complete control)) | Bermudagrass plant response rating [4, 16] | Bermudagrass plant response rating [4, 18] | Morningglory plant response rating [6, 16] | Morningglory plant response rating [6, 18] | Pigweed plant response rating [7, 20] | Pigweed plant response rating [7, 21] | Plant response rating, Pigweed [7, 22] | Morningglory plant response rating [8, 20] | Plant response rating, Morningglory [8, 22]
65: Plant response rating, Rice ([14]; 250 g ai/ha, scale 0 to 100, 0 no effect, 100 complete control, 13 to 15 days)
60: Kochia plant response rating [3, 16] | Pigweed plant response rating [7, 19] | Morningglory plant response rating [8, 19]
10: Plant response rating, Rice ([14]; 62 g ai/ha, scale 0 to 100, 0 no effect, 100 complete control, 13 to 15 days)
